Results reported in publication PMC6508677, “Identification of druggable small molecule antagonists of the Plasmodium falciparum hexose transporter PfHT and assessment of ligand access to the glucose permeation pathway via FLAG-mediated protein engineering” (PLoS ONE, 2019).
Where “and” joins values, the source holds several entries; their conditions need not be identical. Identical values can stand only once. Like-named read-outs stand apart in the source and are kept apart here.

Assays:
hGLUT4 = target: T1, hGLUT4 (Homo sapiens, UniProt P14672); assay: 2-DG uptake by HEK293 cells overexpressing hGLUT4; assay type: cell-based; details: for remaining activity at 0.001 µM: 0.001 µM compound; for remaining activity at 0.001 µM / remaining activity at 1.25 µM / remaining activity at 2.5 µM / remaining activity at 5 µM / remaining activity at 10 µM / remaining activity at 20 µM / remaining activity at 40 µM / remaining activity at 80 µM / remaining activity at 160 µM / remaining activity at 225 µM: read-out: 2-DG uptake (percent uptake relative to vehicle), AVE per experiment; for remaining activity at 1.25 µM: 1.25 µM compound; for remaining activity at 20 µM: 20 µM compound; for remaining activity at 40 µM: 40 µM compound; for remaining activity at 80 µM: 80 µM compound; for remaining activity at 160 µM: 160 µM compound; for remaining activity at 225 µM: 225 µM compound; for IC50: IC50 for inhibition of 2-DG uptake
T1 construct: expressed in transfected cells; host or cells: HEK293 (HEK293-FLIP, native hGLUT1 knocked down by shRNA)
T1 sequence (P14672 1-509): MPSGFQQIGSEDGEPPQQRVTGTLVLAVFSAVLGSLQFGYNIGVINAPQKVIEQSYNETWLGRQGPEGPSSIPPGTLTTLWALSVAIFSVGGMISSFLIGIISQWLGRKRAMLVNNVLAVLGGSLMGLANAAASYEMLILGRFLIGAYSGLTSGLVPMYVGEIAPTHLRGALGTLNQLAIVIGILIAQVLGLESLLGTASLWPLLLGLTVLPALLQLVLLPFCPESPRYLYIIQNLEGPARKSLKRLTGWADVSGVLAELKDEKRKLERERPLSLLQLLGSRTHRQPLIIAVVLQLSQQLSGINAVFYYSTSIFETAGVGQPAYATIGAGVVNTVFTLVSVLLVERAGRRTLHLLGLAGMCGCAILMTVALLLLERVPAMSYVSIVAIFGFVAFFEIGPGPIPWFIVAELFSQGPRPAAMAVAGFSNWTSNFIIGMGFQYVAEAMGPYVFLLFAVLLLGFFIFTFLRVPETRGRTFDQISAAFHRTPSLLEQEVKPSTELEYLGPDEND
Source text: (§1) Generation of HEK293 cells overexpressing PfHT and human GLUTs 1–4 were described elsewhere. Briefly, HEK293 cells were transfected with pcDNA3.1 FLII12Pglu-7006 (Addgene), containing the fluorescence resonance energy transfer (FRET) glucose sensor (HEK293-FLIP) and PfHT, human GLUT1 (hGLUT1), hGLUT2, hGLUT3, hGLUT4, hGLUT5 or hGLUT8 using Optifect (Life Technologies) according to manufacturer’s specifications. To increase retention of GLUT8 at the plasma membrane, the dileucine sorting signal E^7E^8XXXLL was modified to R^7R^8XXXLL as described in [17]. Stable transfectants were selected for G418 and hygromycin resistance to select for FRET sensor and hexose transporter, respectively. HEK293-FLIP cells were also used to generate cells stably transfected with FLAG-tagged PfHT (FTPfHT). FLAG tag ([…]) followed by a triple glycine linker and a tobacco etch virus (TEV) protease site (ENLYFQS) followed by a triple glycine linker was added to the N-terminus of PfHT via PCR [18] using Phusion Hot Start II High-Fidelity DNA Polymerase (Fisher Scientific). Single clones were selected by comparing their abilities to transport glucose as assayed via FRET and radiolabeled hexose uptake. In all cell lines, except for HEK293 cells overexpressing hGLUT1 and hGLUT5, native hGLUT1 was knocked down using shRNA as described elsewhere. Transcript levels of the individual GLUTs expressed in each cell line are as described in [13, 15] and in S1 Fig.
(§2) Glucose uptake by P. falciparum was performed essentially as described. P. falciparum strain 3D7 was cultured in 100 mm tissue culture dishes (Techno Plastic Products) in a 2% suspension of human erythrocytes and RPMI 1640 medium until reaching > 7.5% parasitemia. Cells were pelleted via centrifugation and resuspended in RPMI 1640 medium. To determine the uptake of radiolabeled glucose into the parasite, parasites were isolated from infected erythrocytes by permeablization with saponin (0.05 w/v), followed by centrifugation, aspiration of supernatant and washing of the pellet 3X with saline solution (135 mM NaCl, 2 mM KCl, 25 mM HEPES, 0.2 mM glucose and 1 mM MgCl2; pH 7.1) to remove cellular debris. WU-1 or DMSO vehicle were added to 100 μl parasites (resuspended in saline) 5 min prior to the addition of 100 μl [^14C]2-DOG (0.2- μCi/ml final concentration). 2-DG uptake was stopped after 2 min by layering the entire reaction over 300 μl of an oil mixture (5:4 mix of dibutyl phthalate / dinonyl phthalate) in Eppendorf tubes and centrifuged at 15,850 × g for 2 mins. The ratio of the estimated intracellular concentration of radiolabel relative to the extracellular concentration were calculated as described. Uptake of radiolabeled hexose into HEK293 cells was measured in glucose-free HBSS as described previously. Briefly, cells were plated at 400,000 cells/well overnight at 37°C in 24-well plates pre-treated with PEI. After 30-min incubation at 37°C in glucose-free HBSS in the presence of vehicle or increasing concentrations of compound, 2-DG uptake was measured in glucose-free HBSS for 4 min at 37°C. Cultures were washed in ice-cold 1X PBS and lysed in 0.1% Triton X-100 in 1X PBS. Radiolabeled hexose uptake was determined by liquid scintillation counting (Ultima Gold, Thermo Fisher) and normalized to total protein per well. Uptake data are plotted as percent uptake relative to vehicle-treated cells. Kinetic analyses were performed using the indicated concentrations of substrate and WU-1, with quenching of uptake after 1 min incubation. Incubation times had been previously determined as being in the linear range of time-dependent radiolabeled hexose uptake (2 min for 2-DG uptake into freed parasites; 2 and 4 min for D-Frc and 2-DG uptake HEK cell lines, respectively). Data were fit by least squares nonlinear regression analysis using GraphPad Prism 6.0 software.

hGLUT3 = target: T2, hGLUT3 (Homo sapiens, UniProt P11169); assay: 2-DG uptake by HEK293 cells overexpressing hGLUT3; assay type: cell-based; details: for remaining activity at 0.001 µM: 0.001 µM compound; for remaining activity at 5 µM / inhibition at 5 µM: 5 μM compound; for remaining activity at 40 µM: 40 µM compound; for remaining activity at 80 µM: 80 µM compound; for remaining activity at 160 µM: 160 µM compound; for remaining activity at 225 µM: 225 µM compound; for IC50: IC50 for inhibition of 2-DG uptake
T2 construct: expressed in transfected cells; host or cells: HEK293 (HEK293-FLIP, native hGLUT1 knocked down by shRNA)
T2 sequence (P11169 1-496): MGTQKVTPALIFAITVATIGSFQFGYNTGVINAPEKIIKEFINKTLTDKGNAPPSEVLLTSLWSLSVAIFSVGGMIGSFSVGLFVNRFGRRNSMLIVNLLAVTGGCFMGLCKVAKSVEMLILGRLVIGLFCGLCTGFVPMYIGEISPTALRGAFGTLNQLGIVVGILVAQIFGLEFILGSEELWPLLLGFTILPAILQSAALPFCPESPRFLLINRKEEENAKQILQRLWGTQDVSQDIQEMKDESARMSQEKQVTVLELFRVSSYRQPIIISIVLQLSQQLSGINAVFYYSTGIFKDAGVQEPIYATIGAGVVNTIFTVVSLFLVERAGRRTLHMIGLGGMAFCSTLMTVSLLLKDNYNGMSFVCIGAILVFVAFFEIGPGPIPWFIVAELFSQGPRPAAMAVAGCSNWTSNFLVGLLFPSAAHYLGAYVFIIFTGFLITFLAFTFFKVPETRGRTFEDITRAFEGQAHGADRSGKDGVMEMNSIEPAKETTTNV
Source text: as §1, §2

[1] = HEK293, 4 min, GLUT4, 2.5 µM compound
[2] = HEK293, 4 min, GLUT4, 5 µM compound
[3] = HEK293, 4 min, GLUT4, 10 µM compound
[4] = GLUT4 cell line, mean/reported value
[5] = HEK293, 4 min, GLUT3, read-out: 2-DG uptake (percent uptake relative to vehicle), AVE per experiment
[6] = HEK293, 4 min, GLUT3, 2.5 µM compound, read-out: 2-DG uptake (percent uptake relative to vehicle), AVE per experiment
[7] = HEK293, 4 min, GLUT3, read-out: % Inhibition of 2-DG uptake vs vehicle
[8] = HEK293, 4 min, GLUT3, 10 µM compound, read-out: 2-DG uptake (percent uptake relative to vehicle), AVE per experiment
[9] = GLUT3 cell line, mean/reported value
[10] = individual experiments, GLUT3, Expt 1-3

| Compound | remaining activity at 0.001 µM (hGLUT4; HEK293, 4 min, GLUT4) [%] | remaining activity at 1.25 µM (hGLUT4; HEK293, 4 min, GLUT4) [%] | remaining activity at 2.5 µM (hGLUT4; [1]) [%] | remaining activity at 5 µM (hGLUT4; [2]) [%] | remaining activity at 10 µM (hGLUT4; [3]) [%] | remaining activity at 20 µM (hGLUT4; HEK293, 4 min, GLUT4) [%] | remaining activity at 40 µM (hGLUT4; HEK293, 4 min, GLUT4) [%] | remaining activity at 80 µM (hGLUT4; HEK293, 4 min, GLUT4) [%] | remaining activity at 160 µM (hGLUT4; HEK293, 4 min, GLUT4) [%] | remaining activity at 225 µM (hGLUT4; HEK293, 4 min, GLUT4) [%] | IC50 (hGLUT4; [4]) [µM] | remaining activity at 0.001 µM (hGLUT3; [5]) [%] | remaining activity at 2.5 µM (hGLUT3; [6]) [%] | remaining activity at 5 µM (hGLUT3; [5]) [%] | inhibition at 5 µM (hGLUT3; [7]) [%] | remaining activity at 10 µM (hGLUT3; [8]) [%] | remaining activity at 40 µM (hGLUT3; [5]) [%] | remaining activity at 80 µM (hGLUT3; [5]) [%] | remaining activity at 160 µM (hGLUT3; [5]) [%] | remaining activity at 225 µM (hGLUT3; [5]) [%] | also measured |
| --- | --- | --- | --- | --- | --- | --- | --- | --- | --- | --- | --- | --- | --- | --- | --- | --- | --- | --- | --- | --- | --- |
| Cc1ccc(S(=O)(=O)CCNC(=O)c2c(-c3c(Cl)cccc3Cl)noc2C)cc1 [WU-1, 3-(2,6-dichlorophenyl)-5-methyl-N-[2-(4-methylbenzenesulfonyl)ethyl]-1,2-oxazole-4-carboxamide] | 100 | 99.2 | 96.1 | 89.1 | 94 | 88.4 | 86.8 | 74.7 | 64.7 | 61.9 | > 100 | 100 | 103 | 99.5 | 0.48 | 103 | 82.5 | 76.4 | 80 | 75.3 | IC50 for inhibition of 2-DG uptake, individual experiments (hGLUT4; GLUT4, Expt 1-3): ambiguous; remaining activity at 5 µM (hGLUT4; HEK293, 4 min): 102%; remaining activity at 10 µM (hGLUT4; HEK293, 4 min): 83.2%; inhibition at 5 µM (hGLUT4; HEK293, 4 min, read-out: % Inhibition of 2-DG uptake vs vehicle): -1.91%; IC50 for inhibition of 2-DG uptake, individual experiments (hGLUT3; GLUT3, Expt 1-3): ambiguous; remaining activity at 1.25 µM (hGLUT3; HEK293, 4 min, GLUT3, 1.25 µM compound, read-out: 2-DG uptake (percent uptake relative to vehicle), AVE per experiment): 110%; remaining activity at 20 µM (hGLUT3; HEK293, 4 min, GLUT3, 20 µM compound, read-out: 2-DG uptake (percent uptake relative to vehicle), AVE per experiment): 102%; IC50 (hGLUT3; [9]): > 100 µM; IC50 (hGLUT3; [10]): > 225 µM |
| COc1c(Br)cc([N+](=O)[O-])c(OC)c1C(=O)NC(=O)Nc1c(C)cccc1Cl [WU-2, 3-(3-bromo-2,6-dimethoxy-5-nitrobenzoyl)-1-(2-chloro-6-methylphenyl)urea] | 100 | 95.3 | 91.7 | 86.8 | 88.3 | 74.1 | 66.7 | 61 | 55.7 | 63.7 | 18.5 ± 3.5 | 100 | 92.9 | 92.4 | 10 to 12 | 95.1 | 91.7 | 81.9 | 68.7 | 77.5 | Maximum Inhibition (%) (hGLUT4; 2-DG uptake, GLUT4 cell line): 40.0%; inhibition at 5 µM (hGLUT4; HEK293, 4 min, GLUT4, 5 µM compound, read-out: % Inhibition of 2-DG uptake vs vehicle): 10 to 12%; IC50 (hGLUT4; individual experiments, GLUT4, Expt 1-3): 14.2 µM and 25.4 µM and 15.9 µM; IC50 (hGLUT3; [9]): > 50 µM; IC50 (hGLUT3; [10]): 103 µM and 61.6 µM and 11.4 µM |
| COc1cc(/C=C2\COC/C(=C\c3cc(OC)c(OC)c(OC)c3)C2=O)cc(OC)c1OC [WU-5, (3E,5E)-3,5-bis[(3,4,5-trimethoxyphenyl)methylidene]oxan-4-one] |  |  |  |  |  |  |  |  |  |  |  |  |  |  |  |  |  |  |  |  | inhibition at 2.5 µM (hGLUT4; HEK293, 4 min, GLUT4, 2.5 µM compound, read-out: % Inhibition of 2-DG uptake vs vehicle): ~45%; inhibition at 2.5 µM (hGLUT3; HEK293, 4 min, GLUT3, 2.5 µM compound, read-out: % Inhibition of 2-DG uptake vs vehicle): ~20% |
| COc1cc(/C=N/NC(=O)c2cc(-c3ccccc3)sc2N)cc(OC)c1OC [WU-3, 2-amino-5-phenyl-N'-[(E)-(3,4,5-trimethoxyphenyl)methylidene]thiophene-3-carbohydrazide] |  |  |  |  |  |  |  |  |  |  |  |  |  |  |  |  |  |  |  |  | inhibition at 10 µM (hGLUT3; HEK293, 4 min, GLUT3, 10 µM compound, read-out: % Inhibition of 2-DG uptake vs vehicle): ≥ 50% |
